Data set [1] concerns the target T1, METTL3/METTL14 (Homo sapiens, UniProt Q86U44). In words: Inhibition of METTL3/METTL14-mediated m6A mRNA expression in human Calu-6 cells incubated for 24 hrs by LC-MS/MS analysis. It counts as cell-based.
For a further data set, the target named is Cytochrome P450 3A4 (Homo sapiens, UniProt P08684). In words: Inhibition of CYP3A4 (unknown origin). Type of data set: ADME.
The nature of data set [2]: Half life in rat liver microsomes. Type of data set: ADME, Microsome. Background: Liver microsomes are vesicles of endoplasmic reticulum, rich in cytochrome P450 enzymes.
Data set [3] deals with T1, METTL3/METTL14. In words: Displacement of [3H]-SAM from METTL3/METTL14 (unknown origin) using 5'biotinylated-UACACUCGAUCUGGACUAAAGGUGCUC-3' RNA as substrate preincubated for 10 mins followed by substrate/[3H]-SAM addition measured after 90 mins by SPA. Type of data set: protein-complex assay. For orientation: In a radioligand displacement assay an active substance lowers the binding of a labelled ligand.

In the next data set the test system is Kasumi 1. In words: Antiproliferative activity against human Kasumi 1 cells assessed as inhibition of cell viability incubated for 72 hrs by ATPlite assay. It counts as functional, cell-based. As to conditions: Kasumi 1, 72 h. Background: In ATP-based viability assays light output follows the ATP content of the culture.
Data set [4] in a line: Lipophilicity, logD of compound in 1-octanol/PBS at pH 7.4 incubated for 24 hrs by HPLC analysis. It counts as physicochemical.
A short description of data set [5]: Unbound AUC in Sprague-Dawley rat at 1 mg/kg/day, iv measured for 24 hrs by LC-MS/MS analysis. Type of data set: ADME, organism-based. As to conditions: in vivo.
The next data set concerns MV4-11. Nature of the data set: Antiproliferative activity against human MV4-11 cells assessed as inhibition of cell viability incubated for 72 hrs by ATPlite assay. It counts as functional, cell-based. To be noted: MV4-11, 72 h.
A further data set concerns Caov-3 cell line. In words: Antiproliferative activity against human Caov-3 cells assessed as inhibition of cell viability incubated for 72 hrs by ATPlite assay. Type of data set: functional, cell-based. As to conditions: Caov-3, 72 h.
Another data set deals with Calu-6. Nature of the data set: Antiproliferative activity against human Calu-6 cells assessed as inhibition of cell viability incubated for 72 hrs by ATPlite assay. To be noted: Calu-6, 72 h. Type of data set: functional, cell-based.
For another data set, the system named is A549. Nature of the data set: Antiproliferative activity against human A549 cells assessed as inhibition of cell viability incubated for 72 hrs by ATPlite assay. Type of data set: functional, cell-based. As to conditions: A549, 72 h.
Another data set deals with FaDu. In words: Antiproliferative activity against human FaDu cells assessed as inhibition of cell viability incubated for 72 hrs by ATPlite assay. It counts as functional, cell-based.
For the next data set, the system named is SK-OV-3. Nature of the data set: Antiproliferative activity against human SK-OV-3 cells assessed as inhibition of cell viability incubated for 72 hrs by ATPlite assay. It counts as functional, cell-based. As to conditions: SK-OV-3, 72 h.
The test system of the next data set is NCI-H1650. In words: Growth inhibition of human NCI-H1650 cells spheroid model. It counts as functional, cell-based.
The target of data set [6] is T1, METTL3/METTL14. Nature of the data set: Inhibition of METTL3/METTL14-mediated m6A mRNA expression in human Kasumi 1 cells incubated for 24 hrs by LC-MS/MS analysis. It counts as cell-based.
The target of data set [7] is T1, METTL3/METTL14. Nature of the data set: Inhibition of METTL3/METTL14-mediated m6A mRNA expression in human MV4-11 cells incubated for 24 hrs by LC-MS/MS analysis. Type of data set: cell-based.
The target in data set [8] is T1, METTL3/METTL14. In words: Inhibition of METTL3/METTL14-mediated m6A mRNA expression in human A549 cells incubated for 24 hrs by LC-MS/MS analysis. It counts as cell-based.
The target in data set [9] is T1, METTL3/METTL14. In words: Inhibition of METTL3/METTL14-mediated m6A mRNA expression in human FaDu cells incubated for 24 hrs by LC-MS/MS analysis. It counts as cell-based.
For data set [10], the target named is T1, METTL3/METTL14. Nature of the data set: Inhibition of METTL3/METTL14-mediated m6A mRNA expression in human SK-OV-3 cells incubated for 24 hrs by LC-MS/MS analysis. It counts as cell-based.
The nature of data set [11]: Unbound AUC in mouse at 30 mg/kg, ip. Type of data set: ADME, organism-based. As to conditions: in vivo.
Data set [12] in a line: In vivo inhibition of METTL3/METTL14-mediated m6A mRNA expression in PBMC of rat at 3 to 30 mg/kg relative to control. Type of data set: functional. To be noted: dose 3-30 mg/kg.
The test system of a further data set is Rattus norvegicus. In words: In vivo inhibition of METTL3/METTL14-mediated m6A mRNA expression in PBMC of rat. It counts as functional, organism-based. As to conditions: dose 3-30 mg/kg.

The structures appear in SMILES notation.

T1 sequence (Q86U44 whole entry): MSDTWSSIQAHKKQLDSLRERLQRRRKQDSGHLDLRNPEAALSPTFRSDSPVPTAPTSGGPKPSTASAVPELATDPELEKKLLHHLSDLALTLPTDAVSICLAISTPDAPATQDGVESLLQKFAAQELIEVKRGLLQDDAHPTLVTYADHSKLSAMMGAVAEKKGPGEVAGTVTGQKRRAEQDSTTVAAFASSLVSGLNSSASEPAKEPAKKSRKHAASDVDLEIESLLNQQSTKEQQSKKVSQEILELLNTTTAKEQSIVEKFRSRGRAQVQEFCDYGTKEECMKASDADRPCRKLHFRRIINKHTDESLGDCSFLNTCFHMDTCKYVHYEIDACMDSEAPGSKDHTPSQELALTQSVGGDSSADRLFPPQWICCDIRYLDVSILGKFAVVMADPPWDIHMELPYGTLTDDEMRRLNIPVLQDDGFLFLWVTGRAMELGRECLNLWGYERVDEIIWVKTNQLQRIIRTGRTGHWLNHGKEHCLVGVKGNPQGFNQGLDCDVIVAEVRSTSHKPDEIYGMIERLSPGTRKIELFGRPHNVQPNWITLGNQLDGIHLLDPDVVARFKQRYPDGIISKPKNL
T1 sequence (Q9HCE5 whole entry, further chain): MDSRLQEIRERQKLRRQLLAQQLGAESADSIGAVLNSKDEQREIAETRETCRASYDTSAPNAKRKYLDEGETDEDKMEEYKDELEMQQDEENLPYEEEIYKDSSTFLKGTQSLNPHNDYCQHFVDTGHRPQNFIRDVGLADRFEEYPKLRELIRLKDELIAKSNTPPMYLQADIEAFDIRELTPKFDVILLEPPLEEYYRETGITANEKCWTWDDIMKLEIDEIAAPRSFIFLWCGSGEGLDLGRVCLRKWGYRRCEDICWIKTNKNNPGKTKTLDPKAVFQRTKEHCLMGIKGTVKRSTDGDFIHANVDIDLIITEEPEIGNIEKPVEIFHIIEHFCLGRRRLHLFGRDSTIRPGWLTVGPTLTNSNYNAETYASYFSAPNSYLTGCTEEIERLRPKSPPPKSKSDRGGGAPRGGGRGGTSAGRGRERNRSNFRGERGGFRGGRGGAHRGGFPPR
Cytochrome P450 3A4, sequence (P08684 whole entry): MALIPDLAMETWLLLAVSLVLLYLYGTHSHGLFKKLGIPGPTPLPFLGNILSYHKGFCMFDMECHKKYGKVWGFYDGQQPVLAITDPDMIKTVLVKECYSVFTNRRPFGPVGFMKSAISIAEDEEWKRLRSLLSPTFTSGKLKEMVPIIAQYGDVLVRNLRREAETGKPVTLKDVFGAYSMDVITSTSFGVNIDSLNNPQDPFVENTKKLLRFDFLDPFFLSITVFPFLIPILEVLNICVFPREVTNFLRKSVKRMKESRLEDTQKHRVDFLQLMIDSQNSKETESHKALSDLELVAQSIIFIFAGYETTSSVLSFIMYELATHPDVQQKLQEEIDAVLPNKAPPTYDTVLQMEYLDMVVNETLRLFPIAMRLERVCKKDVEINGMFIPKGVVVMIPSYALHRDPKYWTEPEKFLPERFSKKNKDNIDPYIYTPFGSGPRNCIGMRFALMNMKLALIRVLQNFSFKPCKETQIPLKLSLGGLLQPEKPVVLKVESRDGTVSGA

In the case of `COc1cc(-c2cn(Cc3ccc(N4CCC[C@@H](NCC5CCC5)C4)nn3)nn2)c2cn[nH]c2c1`, the IC50 (commonly the midpoint of a concentration-inhibition curve) against METTL3/METTL14 [1] is 100 nM; on Cytochrome P450 3A4, roughly 800 nM; on METTL3/METTL14 [3] it was 2 nM; in the data set with Kasumi 1, 629 nM. Further, the half-life (as a rule, the time needed for the level to fall by half in the phase considered) in [2] came to 16 min. For the same compound, the logD (as a rule, the decadic logarithm of the distribution of all forms, ionised or not, between an organic phase and buffer at a given pH) at 24 h in data set [4] amounted to 1.89.
As for `O=C(NCc1ccc2cc(CNCC3CCC3)[nH]c2c1)c1cc(=O)n2ccccc2n1`, the 50% inhibitory concentration (IC50) was 169 nM against METTL3/METTL14 [1]; 4 nM on METTL3/METTL14 [3]; 1160 nM in the data set with Kasumi 1; 7630 nM in the data set on MV4-11; 563 nM in the data set on Caov-3 cell line; 1140 nM with Calu-6. Also, the IC50 was greater than 5000 nM in the data set with A549; 2210 nM with FaDu; 371 nM with SK-OV-3; 2060 nM with NCI-H1650; 138 nM against METTL3/METTL14 [6]; 182 nM on METTL3/METTL14 [7]. Further, the IC50 stood at 264 nM at METTL3/METTL14 [8], 331 nM at METTL3/METTL14 [9] and 134 nM at METTL3/METTL14 [10]. Besides, the logD at 24 h in data set [4] came out at 1.9. Moreover, the values for the fAUC in [5] and in data set [11] were 4.6 µM·min and 298.1 µM·min, respectively. The “inhibition (INH)” value in [12] is “<=61%”. The inhibition entry with Rattus norvegicus is “Dose-dependent-effect”.

(Values after ChEMBL document CHEMBL6121062, “Discovery, Optimization, and Preclinical Pharmacology of EP652, a METTL3 Inhibitor with Efficacy in Liquid and Solid Tumor Models” (J Med Chem, 2025).)
